# Key:
# [1] = tested on: HIV-1 VSV-G pseudotype (NL4.3-luc) in MDM cells; assay type: cell-based
# [2] = tested on: HIV-1 VSV-G pseudotype (NL4.3-luc) in MDM cells; assay type: cell-based; remark: listed apart in the source
# [3] = tested on: HIV-1 VSV-G pseudotype (NL4.3-luc) in MDM cells; assay type: cell-based; remark: listed apart in the source
# [4] = tested on: HIV-1 VSV-G pseudotype (NL4.3-luc) in CD4 T cells; assay type: cell-based
# [5] = tested on: CD4 T cells; assay: Flow-cytometry analysis of activation markers CD25 and CD69; assay type: cell-based, human; conditions: PHA treatment during three days before infection
molecule,measurement,setting,value
"O=C(O)C(=O)CC(=O)c1cccn1Cc1ccc(F)cc1 [L-731,988]",luciferase activity in cell lysates,[1],reduced in a dose-dependent manner
same,number of cells emitting bioluminescence,[2],reduction in the number of cells emitting bioluminescence
same,number of photons emitted per individual cell,[2],significant reduction in the number of photons emitted per individual cell
same,overall averaged bioluminescence intensity,[2],decreased
"CCCCCCCCCCCCCC(=O)O[C@@H]1[C@@H](C)[C@@]2(O)[C@@H](C=C(CO)C[C@]3(O)C(=O)C(C)=C[C@@H]23)[C@@H]2C(C)(C)[C@]12OC(C)=O [PMA, phorbol 12-myristate 13-acetate]",time after stimulation at which bioluminescence signal began to increase,[3],4 h
phytohemagglutinin [PHA],duration of increase of photon emission until stable plateau level,[4],4 h
same,positive lymphocytes (bioluminescence) in cells treated before infection,[4],abundant numbers of positive lymphocytes
same,time after mitogen stimulation at which photon emission began to be detected in formerly negative cells,[4],8 h
same,global activation of CD4 T cells,[5],> 98%

# From patent US20070141673A1, “Tool for quantitative real-time analysis of viral gene expression dynamics in single living cells” (priority 2005, published 2007)
